Reference: the supplement of paper PMC10307832

What was measured:
Assay in all cases: relative viability (nuclei count vs DMSO), 5 days (fraction); higher = more cells survive
HCC-78 = tested on: HCC-78
Outline: (§1)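 Values are medians from duplicate plates. Each reflects relative viability, defined as the nuclei count of treated wells over that of vehicle wells. Lung cancer cell lines in 1536-well plates were pin-tool dosed one day after seeding with one drug alone or with a fixed anchor-drug dose plus five library-drug doses (not always all listed) in √10 steps, then fixed, stained and imaged at 4× after 5 days.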

NCI-H1355 = tested on: NCI-H1355
Outline: as §1

NCI-H2085 = tested on: NCI-H2085
Outline: as §1

HCC-366 = tested on: HCC-366
Outline: as §1

NCI-H1993 = tested on: NCI-H1993
Outline: as §1

SW 1573 = tested on: SW 1573
Outline: as §1

NCI-H3122 = tested on: NCI-H3122
Outline: as §1

LK-2 = tested on: LK-2
Outline: as §1

NCI-H2009 = tested on: NCI-H2009
Outline: as §1

NCI-H2347 = tested on: NCI-H2347
Outline: as §1

NCI-H1734 = tested on: NCI-H1734
Outline: as §1

LC-2-ad = tested on: LC-2-ad
Outline: as §1

NCI-H838 = tested on: NCI-H838
Outline: as §1

NCI-H2228 = tested on: NCI-H2228
Outline: as §1

EMC-BAC-2 = tested on: EMC-BAC-2
Outline: as §1

RERF-LC-KJ = tested on: RERF-LC-KJ
Outline: as §1

CAL-12T = tested on: CAL-12T
Outline: as §1

PC-14 = tested on: PC-14
Outline: as §1

NCI-H596 = tested on: NCI-H596
Outline: as §1

HOP-62 = tested on: HOP-62
Outline: as §1

SK-MES-1 = tested on: SK-MES-1
Outline: as §1

NCI-H2405 = tested on: NCI-H2405
Outline: as §1

Structure (SMILES): O=C(O)CCCCC(CCSCc1ccccc1)SCc1ccccc1 (centres undefined) [CPI-613] + CS(=O)(=O)CCNCc1ccc(-c2ccc3ncnc(Nc4ccc(OCc5cccc(F)c5)c(Cl)c4)c3c2)o1 [Lapatinib] (partner 2 µM)
- relative viability (HCC-78; first compound 5 µM): 0.825
- relative viability (HCC-78; first compound 15.81 µM): 0.591
- relative viability (HCC-78; first compound 158.11 µM): 0.816
- relative viability (HCC-78; first compound 500 µM): 1.14
- relative viability (NCI-H1355; first compound 5 µM): 1.02
- relative viability (NCI-H1355; first compound 15.81 µM): 0.872
- relative viability (NCI-H1355; first compound 50 µM): 0.979
- relative viability (NCI-H1355; first compound 158.11 µM): 0.642
- relative viability (NCI-H1355; first compound 500 µM): 0.589
- relative viability (NCI-H2085; first compound 5 µM): 0.813
- relative viability (NCI-H2085; first compound 15.81 µM): 0.728
- relative viability (NCI-H2085; first compound 50 µM): 0.709
- relative viability (NCI-H2085; first compound 158.11 µM): 0.674
- relative viability (NCI-H2085; first compound 500 µM): 0.516
- relative viability (HCC-366; first compound 5 µM): 0.959
- relative viability (HCC-366; first compound 15.81 µM): 1.02
- relative viability (HCC-366; first compound 50 µM): 1
- relative viability (HCC-366; first compound 158.11 µM): 0.284
- relative viability (HCC-366; first compound 500 µM): 0.0085
- relative viability (NCI-H1993; first compound 5 µM): 0.777
- relative viability (NCI-H1993; first compound 15.81 µM): 0.706
- relative viability (NCI-H1993; first compound 50 µM): 0.774
- relative viability (NCI-H1993; first compound 158.11 µM): 0.567
- relative viability (NCI-H1993; first compound 500 µM): 0.41
- relative viability (SW 1573; first compound 5 µM): 1.24
- relative viability (SW 1573; first compound 15.81 µM): 1.06
- relative viability (SW 1573; first compound 50 µM): 1.13
- relative viability (SW 1573; first compound 158.11 µM): 1.06
- relative viability (SW 1573; first compound 500 µM): 1
- relative viability (NCI-H3122; first compound 5 µM): 1.02
- relative viability (NCI-H3122; first compound 15.81 µM): 0.971
- relative viability (NCI-H3122; first compound 50 µM): 0.994
- relative viability (NCI-H3122; first compound 158.11 µM): 0.856
- relative viability (NCI-H3122; first compound 500 µM): 0.0332
- relative viability (LK-2; first compound 5 µM): 0.967
- relative viability (LK-2; first compound 15.81 µM): 0.864
- relative viability (LK-2; first compound 50 µM): 0.876
- relative viability (LK-2; first compound 158.11 µM): 0.905
- relative viability (LK-2; first compound 500 µM): 0.853
- relative viability (NCI-H2009; first compound 5 µM): 0.996
- relative viability (NCI-H2009; first compound 15.81 µM): 0.897
- relative viability (NCI-H2009; first compound 50 µM): 0.771
- relative viability (NCI-H2009; first compound 158.11 µM): 0.18
- relative viability (NCI-H2009; first compound 500 µM): 0.0119
- relative viability (NCI-H2347; first compound 5 µM): 0.986
- relative viability (NCI-H2347; first compound 15.81 µM): 0.846
- relative viability (NCI-H2347; first compound 50 µM): 0.762
- relative viability (NCI-H2347; first compound 158.11 µM): 0.563
- relative viability (NCI-H2347; first compound 500 µM): 0.766
- relative viability (NCI-H1734; first compound 5 µM): 0.939
- relative viability (NCI-H1734; first compound 15.81 µM): 0.686
- relative viability (NCI-H1734; first compound 50 µM): 1
- relative viability (NCI-H1734; first compound 158.11 µM): 0.349
- relative viability (NCI-H1734; first compound 500 µM): 0.116
- relative viability (LC-2-ad; first compound 5 µM): 0.746
- relative viability (LC-2-ad; first compound 15.81 µM): 0.859
- relative viability (LC-2-ad; first compound 50 µM): 0.868
- relative viability (LC-2-ad; first compound 158.11 µM): 0.255
- relative viability (LC-2-ad; first compound 500 µM): 0.0059
- relative viability (NCI-H838; first compound 5 µM): 0.862
- relative viability (NCI-H838; first compound 15.81 µM): 0.783
- relative viability (NCI-H838; first compound 50 µM): 0.846
- relative viability (NCI-H838; first compound 158.11 µM): 0.601
- relative viability (NCI-H838; first compound 500 µM): 0.0634
- relative viability (NCI-H2228; first compound 5 µM): 0.817
- relative viability (NCI-H2228; first compound 15.81 µM): 0.979
- relative viability (NCI-H2228; first compound 50 µM): 0.832
- relative viability (NCI-H2228; first compound 158.11 µM): 0.406
- relative viability (NCI-H2228; first compound 500 µM): 0.0151
- relative viability (EMC-BAC-2; first compound 5 µM): 0.827
- relative viability (EMC-BAC-2; first compound 15.81 µM): 0.86
- relative viability (EMC-BAC-2; first compound 50 µM): 0.847
- relative viability (EMC-BAC-2; first compound 158.11 µM): 0.954
- relative viability (EMC-BAC-2; first compound 500 µM): 0.0887
- relative viability (RERF-LC-KJ; first compound 5 µM): 0.857
- relative viability (RERF-LC-KJ; first compound 15.81 µM): 0.826
- relative viability (RERF-LC-KJ; first compound 50 µM): 0.782
- relative viability (RERF-LC-KJ; first compound 158.11 µM): 0.854
- relative viability (RERF-LC-KJ; first compound 500 µM): 0.819
- relative viability (CAL-12T; first compound 5 µM): 0.605
- relative viability (CAL-12T; first compound 15.81 µM): 0.532
- relative viability (CAL-12T; first compound 50 µM): 0.603
- relative viability (CAL-12T; first compound 158.11 µM): 0.551
- relative viability (CAL-12T; first compound 500 µM): 0.56
- relative viability (PC-14; first compound 5 µM): 0.347
- relative viability (PC-14; first compound 15.81 µM): 0.307
- relative viability (PC-14; first compound 50 µM): 0.303
- relative viability (PC-14; first compound 158.11 µM): 0.251
- relative viability (PC-14; first compound 500 µM): 0.259
- relative viability (NCI-H596; first compound 5 µM): 1.01
- relative viability (NCI-H596; first compound 15.81 µM): 1.05
- relative viability (NCI-H596; first compound 50 µM): 1.02
- relative viability (NCI-H596; first compound 158.11 µM): 1.05
- relative viability (NCI-H596; first compound 500 µM): 0.0407
- relative viability (HOP-62; first compound 5 µM): 1.06
- relative viability (HOP-62; first compound 15.81 µM): 0.855
- relative viability (HOP-62; first compound 50 µM): 0.935
- relative viability (HOP-62; first compound 158.11 µM): 0.804
- relative viability (HOP-62; first compound 500 µM): 0.107
- relative viability (SK-MES-1; first compound 5 µM): 0.458
- relative viability (SK-MES-1; first compound 15.81 µM): 0.399
- relative viability (SK-MES-1; first compound 50 µM): 0.428
- relative viability (SK-MES-1; first compound 158.11 µM): 0.408
- relative viability (SK-MES-1; first compound 500 µM): 0.458
- relative viability (NCI-H2405; first compound 5 µM): 1.09
- relative viability (NCI-H2405; first compound 15.81 µM): 1.12
- relative viability (NCI-H2405; first compound 50 µM): 1.09
- relative viability (NCI-H2405; first compound 158.11 µM): 0.979
- relative viability (NCI-H2405; first compound 500 µM): 0.902
